The source of these data is paper PMC8899516, “Structure-Activity Relationship Studies of 4-((4-(2-fluorophenyl)piperazin-1-yl)methyl)-6-imino-N-(naphthalen-2-yl)-1,3,5-triazin-2-amine (FPMINT) Analogues as Inhibitors of Human Equilibrative Nucleoside Transporters” (Frontiers in Pharmacology, 2022).

In one assay the target is T1, ENT2 (Homo sapiens, UniProt Q14542).
T1 construct: expressed in transfected cells
T1 sequence (Q14542 1-456): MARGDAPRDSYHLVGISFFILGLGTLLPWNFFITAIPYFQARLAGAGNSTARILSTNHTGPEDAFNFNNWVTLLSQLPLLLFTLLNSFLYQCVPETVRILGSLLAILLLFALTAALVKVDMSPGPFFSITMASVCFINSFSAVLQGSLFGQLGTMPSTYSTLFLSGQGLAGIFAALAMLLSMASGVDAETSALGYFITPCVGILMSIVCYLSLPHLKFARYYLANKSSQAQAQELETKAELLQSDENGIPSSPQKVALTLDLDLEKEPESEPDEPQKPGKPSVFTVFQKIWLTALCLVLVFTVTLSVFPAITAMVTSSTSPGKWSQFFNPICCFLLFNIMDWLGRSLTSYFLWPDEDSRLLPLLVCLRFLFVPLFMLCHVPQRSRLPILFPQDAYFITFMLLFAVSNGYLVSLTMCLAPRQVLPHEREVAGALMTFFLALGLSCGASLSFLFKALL
The experiment in a line: [3H]uridine uptake in PK15NTD/ENT2 cells. The format is cell-based. The conditions noted are these: for IC50: [3H]uridine 1 μM, 1 min, PK15NTD/ENT2 cells, read-out: IC50 against ENT2; for selectivity to ENT2 over ENT1: more selective to ENT2 than to ENT1, from IC50 values; for effect on ENT2: [3H]uridine uptake, 10 nM–100 μM analogue. As for the experimental part: (§1) Nucleoside transporter-deficient porcine kidney fibroblast cells (PK15NTD) stably transfected with cloned human ENT1 or ENT2 ([Ward et al., 2000]) were used as the in vitro models. The cells were cultured in Dulbecco’s Modified Eagle’s Medium (DMEM) supplemented with 10% (v/v) foetal bovine serum, 0.5 mg/ml geneticin, 100 units/ml penicillin, 100 μg/ml streptomycin and 0.25 μg/ml of amphotericin B at 37°C in 5% CO2/95% air.
The cells were incubated with different concentrations of FPMINT analogues (from 10 nM to 100 μM) containing [^3H]uridine (2 μCi/ml, 1 μM) for 1 min. Passive uridine uptake was determined by incubating the cells in HEPES-buffered Ringer’s solution containing [^3H]uridine in the presence of 0.5 mM NBMPR. The cells were rapidly washed five times with ice-cold phosphate-buffered saline (PBS). After air-drying, the cells were solubilised by overnight incubation in 500 μl of 5% Triton-X100. Next, 300 μl of the cell lysates were mixed with 2 ml of scintillation liquid. The radioactivity of each sample was quantified by a scintillation counter. The protein content in each well was determined spectrophotometrically using a commercial bicinchoninic acid assay (Pierce Biochemicals, Rockford, IL). Uptake values were expressed as picomoles of [^3H]uridine per milligram of cellular protein per minute.
(§2) All data were analysed by GraphPad Prism software (San Diego, CA, United States). Data are expressed as mean ± standard error (SE) of three experiments performed in triplicate. The IC50 values were determined from the dose-response curves fitted with a logistic function. For the kinetic study of [^3H]uridine uptake, apparent K m and V max values were determined from the Michaelis-Menten equation, and K i was determined from the X-intercept of linear regression. Analysis of variance and Student’s t-test were performed for multiple and paired variables, respectively. p values of <0.05 were considered to be statistically significant.

A further assay concerns the target T2, ENT1 (Homo sapiens, UniProt Q99808).
T2 construct: expressed in transfected cells
T2 sequence (Q99808 1-456): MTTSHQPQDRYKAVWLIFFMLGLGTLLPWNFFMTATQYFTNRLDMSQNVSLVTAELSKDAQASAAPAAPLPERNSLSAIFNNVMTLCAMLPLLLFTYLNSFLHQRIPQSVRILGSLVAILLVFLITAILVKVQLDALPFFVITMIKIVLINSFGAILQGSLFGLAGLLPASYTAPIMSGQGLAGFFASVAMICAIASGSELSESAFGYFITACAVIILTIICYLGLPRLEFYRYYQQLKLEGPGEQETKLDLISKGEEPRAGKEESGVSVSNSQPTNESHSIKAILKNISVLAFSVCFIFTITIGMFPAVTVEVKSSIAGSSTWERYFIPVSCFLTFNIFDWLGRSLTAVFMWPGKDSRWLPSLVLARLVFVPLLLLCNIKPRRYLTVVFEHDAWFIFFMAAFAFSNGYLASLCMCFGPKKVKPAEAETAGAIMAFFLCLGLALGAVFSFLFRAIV
The experiment in a line: [3H]uridine uptake in PK15NTD/ENT1 cells. The format is cell-based. To be noted: for IC50: [3H]uridine 1 μM, 1 min, PK15NTD/ENT1 cells, read-out: IC50 against ENT1. As for the experimental part:
as §1
Confluent monolayers of PK15NTD/ENT1 and PK15NTD/ENT2 cells in 24-well plates were washed thrice with HEPES-buffered Ringer’s solution containing (mM): 135 NaCl, 10 glucose, 5 KCl, 5 HEPES, 3.33 NaH2PO4, 1.0 CaCl2, 1.0 MgCl2, 0.83 Na2HPO4; pH 7.4. The cells were incubated with different concentrations of FPMINT analogues (from 10 nM to 100 μM) containing [^3H]uridine (2 μCi/ml, 1 μM) for 1 min. Passive uridine uptake was determined by incubating the cells in HEPES-buffered Ringer’s solution containing [^3H]uridine in the presence of 0.5 mM NBMPR. The cells were rapidly washed five times with ice-cold phosphate-buffered saline (PBS). After air-drying, the cells were solubilised by overnight incubation in 500 μl of 5% Triton-X100. Next, 300 μl of the cell lysates were mixed with 2 ml of scintillation liquid. The radioactivity of each sample was quantified by a scintillation counter. The protein content in each well was determined spectrophotometrically using a commercial bicinchoninic acid assay (Pierce Biochemicals, Rockford, IL). Uptake values were expressed as picomoles of [^3H]uridine per milligram of cellular protein per minute.
as §2

In assay [1] the test system is ENT1 and ENT2. Also on record: method as in Ward et al., 2000. To be noted: substrate affinity; ref Ward et al., 2000; cited from earlier work.
The next assay relates to ENT4. Also on record: method as in Baldwin et al., 2005; Barnes et al., 2006. The conditions noted are these: ref Baldwin et al., 2005; Barnes et al., 2006; cited from earlier work.
Assay [2] concerns ENT1 and ENT2. To be noted: ref Ward et al., 2000, cited from earlier work; for fold more potent in inhibiting ENT1 than in inhibiting ENT2: Playa et al., 2014.
The next assay relates to ENT3. Also on record: method as in Baldwin et al., 2005; Barnes et al., 2006. To be noted: ref Baldwin et al., 2005; Barnes et al., 2006; cited from earlier work.

As a reminder, the IC50 is the point on the concentration scale where inhibition reaches its midpoint. As for `COc1ccc(Nc2nc(N)nc(CN3CCN(c4ccccc4F)CC3)n2)cc1` [Compound 1d], the IC50 is 77.1 µM on ENT2 and 0.59 µM on ENT1.
Consider `Nc1nc(CN2CCN(c3cccc(Cl)c3)CC2)nc(Nc2cccc3ccccc23)n1` [Compound 2b], for which, on ENT2, the 50% inhibitory concentration (IC50) amounted to 2.95 µM and the “selectivity to ENT2 over ENT1” value is 4.29 fold. The concentration for half-maximal inhibition (IC50) at ENT1 was 12.7 µM.
For `Nc1nc(CN2CCN(c3ccccc3F)CC2)nc(Nc2ccccc2)n1` [Compound 1a], on ENT2, the “effect on ENT2” value is recorded as “negligible effects”. Also, the “effect on ENT1” value on ENT1 ([3H]uridine uptake, 10 nM–100 μM analogue) was “negligible effects”.
On to `Nc1ccn([C@@H]2O[C@H](CO)[C@@H](O)[C@H]2O)c(=O)n1` [cytidine], for which the “affinity of ENT1 fold higher than that of ENT2” value in the assay with ENT1 and ENT2 [1] is recorded as 7.7 fold.
As for `Cc1cn([C@H]2C[C@H](O)[C@@H](CO)O2)c(=O)[nH]c1=O` [thymidine], the “affinity of ENT1 fold higher than that of ENT2” value with ENT1 and ENT2 [1] is 2.6 fold.
Turning to `Nc1nc(CN2CCN(c3ccccc3F)CC2)nc(Nc2cccc(Cl)c2)n1` [Compound 1b], on ENT2, the “effect on ENT2” value is given as “no effect”. The IC50 at ENT1 came out at 1.82 µM.
`Nc1ncnc2c1ncn2[C@@H]1O[C@H](CO)[C@@H](O)[C@H]1O` [adenosine]: the “affinity of ENT1 fold higher than that of ENT2” value with ENT1 and ENT2 [1] is on record as 2.8 fold.
With `Nc1nc(CN2CCN(c3ccccc3)CC2)nc(Nc2cccc3ccccc23)n1` [Compound 2a], the “effect on ENT2” value on ENT2 is “did not inhibit”. In addition, the half-inhibitory concentration (IC50) at ENT1 was 105 µM.
Take `O=[N+]([O-])c1ccc(CSc2ncnc3c2ncn3[C@@H]2O[C@H](CO)[C@@H](O)[C@H]2O)cc1` [NBMPR, S-(4-nitrobenzyl)-6-thioinosine]: the “sensitivity of ENT4 to inhibitor” value in the assay on ENT4 is listed as “inert”. Besides, in the assay with ENT1 and ENT2 [2], the “fold more potent in inhibiting ENT1 than in inhibiting ENT2” value (shortened to “fold more potent in inhibiting ENT1 than”) is listed as 7,000 fold and the “IC50 of ENT2 fold higher than that of ENT1” value is 7,000 fold. The “sensitivity of ENT3 to inhibitor” value with ENT3 is recorded as “inert”.
On to `COc1cc(C(=O)OCCCN2CCCN(CCCOC(=O)c3cc(OC)c(OC)c(OC)c3)CC2)cc(OC)c1OC` [dilazep], for which the “fold more potent in inhibiting ENT1 than” value in the assay with ENT1 and ENT2 [2] was 502 fold.
Regarding `Nc1nc2c(ncn2[C@@H]2O[C@H](CO)[C@@H](O)[C@H]2O)c(=O)[nH]1` [guanosine], in the assay with ENT1 and ENT2 [1], the “affinity of ENT1 fold higher than that of ENT2” value is 19.3 fold.
For the molecule `Nc1nc(CN2CCN(c3ccc(F)cc3)CC2)nc(Nc2cccc(Cl)c2)n1` [Compound 3b], at ENT2, the “effect on ENT2” value is “did not inhibit”. Besides, the half-inhibitory concentration (IC50) at ENT1 turned out to be 1.65 µM.
As for `CCc1ccc(Nc2nc(N)nc(CN3CCN(c4ccccc4F)CC3)n2)cc1` [Compound 1c], on ENT2, the 50% inhibitory concentration (IC50) came to 36.8 µM and the “selectivity to ENT2 over ENT1” value worked out at 4.647 fold. On ENT1, the IC50 was 171 µM.
Turning to `OCCN(CCO)c1nc(N2CCCCC2)c2nc(N(CCO)CCO)nc(N3CCCCC3)c2n1` [dipyridamole], the “sensitivity of ENT4 to inhibitor” value with ENT4 is “inert”. Besides, in the assay on ENT1 and ENT2 [2], the “fold more potent in inhibiting ENT1 than” value is 71 fold and the “IC50 of ENT2 fold higher than that of ENT1” value is 71 fold. Moreover, in the assay with ENT3, the “sensitivity of ENT3 to inhibitor” value is reported as “inert”.
